Experimental data as given in the NIST ThermoML archive (doi:10.1016/j.jct.2016.06.001).

Settings: Liquid, Frequency=8 MHz, Pulse-echo method

CC(C)O [propan-2-ol]
Settings | speed of sound [m/s]
253.15 K, 99 kPa | 1301
253.15 K, 5138 kPa | 1328.8
253.15 K, 10106 kPa | 1354.9
253.15 K, 15136 kPa | 1380
253.15 K, 20143 kPa | 1404
253.15 K, 25229 kPa | 1427.5
253.15 K, 30036 kPa | 1448.9
273.15 K, 100 kPa | 1227.9
273.15 K, 5275 kPa | 1258.8
273.15 K, 10173 kPa | 1286.4
273.15 K, 15164 kPa | 1313.3
273.15 K, 20289 kPa | 1339.6
273.15 K, 25102 kPa | 1363.3
273.15 K, 30264 kPa | 1387.7
293.15 K, 100 kPa | 1157.4
293.15 K, 5085 kPa | 1189.7
293.15 K, 10183 kPa | 1220.8
293.15 K, 15273 kPa | 1250.2
293.15 K, 20239 kPa | 1277.4
293.15 K, 25220 kPa | 1303.6
293.15 K, 30278 kPa | 1328.9
313.15 K, 100 kPa | 1087.2
313.15 K, 5177 kPa | 1123.1
313.15 K, 10104 kPa | 1155.7
313.15 K, 15187 kPa | 1187.5
313.15 K, 20126 kPa | 1216.6
313.15 K, 25138 kPa | 1244.7
313.15 K, 30110 kPa | 1271.1
333.15 K, 100 kPa | 1016
333.15 K, 5048 kPa | 1054.5
333.15 K, 10038 kPa | 1090.6
333.15 K, 15065 kPa | 1124.6
333.15 K, 20102 kPa | 1156.5
333.15 K, 25093 kPa | 1186.4
333.15 K, 30014 kPa | 1214.4
353.15 K, 100 kPa | 940.5
353.15 K, 5080 kPa | 983.88
353.15 K, 10091 kPa | 1023.9
353.15 K, 15114 kPa | 1060.8
353.15 K, 20132 kPa | 1095.3
353.15 K, 25164 kPa | 1127.6
353.15 K, 30380 kPa | 1159.2

OCCO [1,2-ethanediol]
Settings | speed of sound [m/s]
273.15 K, 99 kPa | 1713.8
273.15 K, 5204 kPa | 1727.5
273.15 K, 10344 kPa | 1740.9
273.15 K, 15152 kPa | 1753.2
273.15 K, 20194 kPa | 1765.9
273.15 K, 25132 kPa | 1778.1
273.15 K, 30171 kPa | 1789.9
293.15 K, 99 kPa | 1665.8
293.15 K, 5051 kPa | 1679.8
293.15 K, 10070 kPa | 1693.5
293.15 K, 15176 kPa | 1707.2
293.15 K, 20158 kPa | 1720.2
293.15 K, 25108 kPa | 1732.9
293.15 K, 30024 kPa | 1745.3
313.15 K, 100 kPa | 1618.5
313.15 K, 5031 kPa | 1633.1
313.15 K, 10028 kPa | 1647.3
313.15 K, 15117 kPa | 1661.7
313.15 K, 20088 kPa | 1675.3
313.15 K, 25102 kPa | 1688.7
313.15 K, 29983 kPa | 1701.6
333.15 K, 99 kPa | 1570.7
333.15 K, 5054 kPa | 1586.1
333.15 K, 10048 kPa | 1601.1
333.15 K, 15067 kPa | 1615.8
333.15 K, 20106 kPa | 1630.3
333.15 K, 25103 kPa | 1644.3
333.15 K, 29958 kPa | 1657.7
353.15 K, 100 kPa | 1521.8
353.15 K, 5079 kPa | 1538.1
353.15 K, 10048 kPa | 1553.8
353.15 K, 15054 kPa | 1569.3
353.15 K, 20071 kPa | 1584.4
353.15 K, 25078 kPa | 1599.1
353.15 K, 29995 kPa | 1613.3

CC(C)CO [2-methyl-1-propanol]
Settings | speed of sound [m/s]
253.15 K, 102 kPa | 1347.3
253.15 K, 5144 kPa | 1373.7
253.15 K, 10257 kPa | 1399.1
253.15 K, 15122 kPa | 1422.2
253.15 K, 20400 kPa | 1446.6
253.15 K, 25315 kPa | 1468
253.15 K, 30039 kPa | 1488.7
273.15 K, 105 kPa | 1274.2
273.15 K, 5154 kPa | 1302.8
273.15 K, 10139 kPa | 1329.4
273.15 K, 15072 kPa | 1354.7
273.15 K, 20215 kPa | 1380
273.15 K, 25138 kPa | 1403.2
273.15 K, 30242 kPa | 1426.4
293.15 K, 102 kPa | 1204.9
293.15 K, 5004 kPa | 1234.9
293.15 K, 10097 kPa | 1264.2
293.15 K, 15140 kPa | 1291.7
293.15 K, 20220 kPa | 1318.2
293.15 K, 25063 kPa | 1342.5
293.15 K, 30100 kPa | 1366.7
313.15 K, 104 kPa | 1138.1
313.15 K, 5135 kPa | 1171.1
313.15 K, 10050 kPa | 1201.4
313.15 K, 15190 kPa | 1231.5
313.15 K, 20126 kPa | 1259
313.15 K, 25019 kPa | 1285.1
313.15 K, 30259 kPa | 1311.7
333.15 K, 100 kPa | 1071.8
333.15 K, 5187 kPa | 1108
333.15 K, 10181 kPa | 1141.3
333.15 K, 15331 kPa | 1173.6
333.15 K, 20135 kPa | 1202
333.15 K, 25174 kPa | 1230.4
333.15 K, 30144 kPa | 1257
353.15 K, 104 kPa | 1004.1
353.15 K, 5055 kPa | 1042.8
353.15 K, 10093 kPa | 1079.4
353.15 K, 15238 kPa | 1114.2
353.15 K, 20157 kPa | 1145.4
353.15 K, 25111 kPa | 1175.1
353.15 K, 30108 kPa | 1203.6

OCCCO [propan-1,3-diol]
Settings | speed of sound [m/s]
293.15 K, 100 kPa | 1635.2
293.15 K, 5030 kPa | 1650
293.15 K, 10062 kPa | 1664.6
293.15 K, 15066 kPa | 1678.9
293.15 K, 20096 kPa | 1692.9
293.15 K, 24997 kPa | 1706.3
293.15 K, 30029 kPa | 1719.9
313.15 K, 99 kPa | 1589.5
313.15 K, 5048 kPa | 1605.1
313.15 K, 10031 kPa | 1620.3
313.15 K, 15138 kPa | 1635.4
313.15 K, 20064 kPa | 1649.8
313.15 K, 25191 kPa | 1664.4
313.15 K, 30167 kPa | 1678.3
333.15 K, 100 kPa | 1544.1
333.15 K, 5058 kPa | 1560.3
333.15 K, 10054 kPa | 1576.2
333.15 K, 15024 kPa | 1591.7
333.15 K, 20153 kPa | 1607.2
333.15 K, 25135 kPa | 1622
333.15 K, 30136 kPa | 1636.6
353.15 K, 101 kPa | 1497.6
353.15 K, 5038 kPa | 1514.6
353.15 K, 10023 kPa | 1531.3
353.15 K, 15089 kPa | 1547.8
353.15 K, 20158 kPa | 1563.9
353.15 K, 25109 kPa | 1579.3
353.15 K, 30076 kPa | 1594.4

CC(O)CO (configuration not stated) [1,2-propanediol]
Settings | speed of sound [m/s]
303.15 K, 99 kPa | 1494.4
303.15 K, 5091 kPa | 1513.5
303.15 K, 10060 kPa | 1532
303.15 K, 15098 kPa | 1550.2
303.15 K, 20084 kPa | 1567.7
303.15 K, 25068 kPa | 1584.7
303.15 K, 30167 kPa | 1601.6
313.15 K, 99 kPa | 1465.9
313.15 K, 5014 kPa | 1485.5
313.15 K, 10053 kPa | 1504.8
313.15 K, 15011 kPa | 1523.2
313.15 K, 20095 kPa | 1541.5
313.15 K, 25202 kPa | 1559.4
313.15 K, 30222 kPa | 1576.5
333.15 K, 100 kPa | 1408.9
333.15 K, 5039 kPa | 1429.7
333.15 K, 10054 kPa | 1450.1
333.15 K, 15107 kPa | 1469.8
333.15 K, 20131 kPa | 1489
333.15 K, 25131 kPa | 1507.4
333.15 K, 30024 kPa | 1524.9
353.15 K, 99 kPa | 1350.9
353.15 K, 5042 kPa | 1373
353.15 K, 10055 kPa | 1394.6
353.15 K, 15135 kPa | 1415.6
353.15 K, 20093 kPa | 1435.5
353.15 K, 25086 kPa | 1454.8
353.15 K, 30207 kPa | 1474.1

CCC(C)O (configuration not stated) [butan-2-ol]
Settings | speed of sound [m/s]
253.15 K, 100 kPa | 1374.6
253.15 K, 5155 kPa | 1400.3
253.15 K, 10194 kPa | 1424.8
253.15 K, 15178 kPa | 1448.1
253.15 K, 20139 kPa | 1470.5
253.15 K, 25051 kPa | 1491.9
253.15 K, 30449 kPa | 1514.4
273.15 K, 100 kPa | 1301.2
273.15 K, 5150 kPa | 1329.2
273.15 K, 10187 kPa | 1355.8
273.15 K, 15226 kPa | 1381.1
273.15 K, 20096 kPa | 1404.6
273.15 K, 25052 kPa | 1427.7
273.15 K, 30040 kPa | 1450
293.15 K, 102 kPa | 1229.1
293.15 K, 5048 kPa | 1258.9
293.15 K, 10078 kPa | 1287.7
293.15 K, 15045 kPa | 1314.6
293.15 K, 20093 kPa | 1340.9
293.15 K, 25164 kPa | 1366
293.15 K, 29995 kPa | 1389
313.15 K, 100 kPa | 1156.3
313.15 K, 5081 kPa | 1189.2
313.15 K, 10051 kPa | 1220
313.15 K, 15034 kPa | 1249.2
313.15 K, 20050 kPa | 1277.2
313.15 K, 25148 kPa | 1304.3
313.15 K, 30041 kPa | 1329.3
333.15 K, 101 kPa | 1081.4
333.15 K, 5111 kPa | 1117.8
333.15 K, 10069 kPa | 1151.4
333.15 K, 15039 kPa | 1183
333.15 K, 20109 kPa | 1213.5
333.15 K, 25122 kPa | 1242.1
333.15 K, 30086 kPa | 1269.2
353.15 K, 119 kPa | 1003.7
353.15 K, 5050 kPa | 1043.6
353.15 K, 10149 kPa | 1081.5
353.15 K, 15213 kPa | 1116.5
353.15 K, 20040 kPa | 1147.9
353.15 K, 25218 kPa | 1179.7
353.15 K, 30032 kPa | 1207.7
